Tests used:
[1] = Inhibition of SARS-COV2 spike protein mediated infection of human ACE2 expressing cells at 50 uM […]
[2] = target: Angiotensin-converting enzyme 2 (Homo sapiens, UniProt Q9BYF1); test: Inhibition of SARS-COV2 S-RBD binding to human ACE2 expressed in HEK293T cells by NanoLuc luciferase assay
[3] = target: Spike glycoprotein (Severe acute respiratory syndrome coronavirus 2, UniProt P0DTC2); test: Inhibition of SARS-COV2 spike protein mediated infection of human ACE2 expressing cells at 50 uM […]

Chain of Angiotensin-converting enzyme 2 (Q9BYF1 whole entry): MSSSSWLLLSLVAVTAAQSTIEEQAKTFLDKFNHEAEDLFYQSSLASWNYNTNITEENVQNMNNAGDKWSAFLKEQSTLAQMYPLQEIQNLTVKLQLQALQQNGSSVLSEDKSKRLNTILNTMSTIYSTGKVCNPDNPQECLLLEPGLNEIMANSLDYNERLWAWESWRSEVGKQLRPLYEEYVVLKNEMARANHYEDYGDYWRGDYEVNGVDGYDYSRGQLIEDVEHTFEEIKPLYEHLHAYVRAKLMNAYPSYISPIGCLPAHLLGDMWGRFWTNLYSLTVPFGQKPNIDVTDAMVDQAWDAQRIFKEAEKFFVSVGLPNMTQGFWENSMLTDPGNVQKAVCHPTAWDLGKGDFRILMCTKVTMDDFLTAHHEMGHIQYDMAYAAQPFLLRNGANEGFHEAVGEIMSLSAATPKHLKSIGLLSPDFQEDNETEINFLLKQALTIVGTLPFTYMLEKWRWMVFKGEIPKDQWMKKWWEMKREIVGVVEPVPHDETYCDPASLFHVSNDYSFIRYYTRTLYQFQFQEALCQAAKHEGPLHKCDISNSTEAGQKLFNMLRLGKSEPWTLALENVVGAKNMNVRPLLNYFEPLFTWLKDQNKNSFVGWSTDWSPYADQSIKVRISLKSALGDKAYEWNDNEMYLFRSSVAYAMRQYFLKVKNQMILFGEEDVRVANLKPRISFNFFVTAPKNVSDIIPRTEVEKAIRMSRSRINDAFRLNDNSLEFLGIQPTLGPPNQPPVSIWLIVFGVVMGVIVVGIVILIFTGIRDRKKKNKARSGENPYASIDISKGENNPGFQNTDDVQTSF

SMILES	IC50 [1]	other results
O=C(OC[C@H]1O[C@@H](OC(=O)c2cc(O)c(O)c(O)c2)[C@H](OC(=O)c2cc(O)c(O)c(O)c2)[C@H](OC(=O)c2cc(O)c(O)c(O)c2)[C@@H]1O)c1cc(O)c(O)c(O)c1 [med.21724, Compound 2]	4500 nM	–
O=c1cc(-c2ccc(O)c(O)c2)oc2cc(O)cc(O)c12 [2-(3,4-dihydroxyphenyl)-5,7-dihydroxy-4H-chromen-4-one]	10600 nM	–
COc1cc(C)nc2c(OC)cc(Cc3cnc(N)nc3N)cc12	–	IC50 [2]: 700 nM
COc1cc(Cc2cnc(N)nc2N)cc2c(N(C)C)cc(C)nc12	–	IC50 [3]: 600 nM
